Data from article PMC4747340, “A new class of small molecule estrogen receptor-alpha antagonists that overcome anti-estrogen resistance” (Oncotarget, 2015).
Counter-ions that a name gives are not always drawn. Like-named read-outs stand apart in the source and are kept apart here. Blank lines part the entries; values can stand above or below the compound they belong to.

Tests used:
[1] = MTT assay of cell viability; type: cell-based; settings: human, MCF-7 cells, 24-hr exposure, relative to untreated control
Method: Figure 3 Cytotoxicity and specificity of compounds A., B. Subconfluent proliferating cells were incubated with the indicated compound at the indicated concentration for 24-hr and then harvested for MTT dye reduction assays. Cell viability values (relative to untreated control cells) are means ± SEMs of 10 replicate wells. C., D. Subconfuent proliferating T47D cells were transfected overnight with the MMTV-Luc reporter (0.25 μg per well in 24-well dishes), washed, and allowed to recover for several hr in fresh medium. The cells were then treated with a synthetic progestin (R5020, 10 nM) plus the indicated compound at the indicated concentration for 24 hr and then harvested for luciferase assays. Luciferase activity is expressed relative to the MMTV-Luc control (no agents added) (panel A) or as a percentage of the +R5020 positive control (panel B). Values are means ± SEMs of four replicate wells. The data shown in each panel are representative of three independent experiments.
Assays were performed as described before. After the indicated treatment, cells in 96-well dishes were solubilized and assayed for MTT dye reduction. Cell viability was expressed as the amount of dye reduction relative to untreated control cells. and calculated as means ± SEMs for 10 replicate wells.

[2] = target: T1, estrogen receptor-alpha (ER) (Homo sapiens, UniProt P03372); experiment: constitutive ER activity, ERE-TK-Luc reporter, in anti-estrogen resistant LCC9 cells; type: cell-based; parameters: LCC9 cells in 24-well dishes were transfected overnight with the ERE-TK-Luc reporter plasmid; endogenous in cells; host or cells: LCC9; settings: LCC9, no E2, 24 hr; read-out: IC50 for inhibition of ER activity in LCC9
T1 sequence (P03372 1-595): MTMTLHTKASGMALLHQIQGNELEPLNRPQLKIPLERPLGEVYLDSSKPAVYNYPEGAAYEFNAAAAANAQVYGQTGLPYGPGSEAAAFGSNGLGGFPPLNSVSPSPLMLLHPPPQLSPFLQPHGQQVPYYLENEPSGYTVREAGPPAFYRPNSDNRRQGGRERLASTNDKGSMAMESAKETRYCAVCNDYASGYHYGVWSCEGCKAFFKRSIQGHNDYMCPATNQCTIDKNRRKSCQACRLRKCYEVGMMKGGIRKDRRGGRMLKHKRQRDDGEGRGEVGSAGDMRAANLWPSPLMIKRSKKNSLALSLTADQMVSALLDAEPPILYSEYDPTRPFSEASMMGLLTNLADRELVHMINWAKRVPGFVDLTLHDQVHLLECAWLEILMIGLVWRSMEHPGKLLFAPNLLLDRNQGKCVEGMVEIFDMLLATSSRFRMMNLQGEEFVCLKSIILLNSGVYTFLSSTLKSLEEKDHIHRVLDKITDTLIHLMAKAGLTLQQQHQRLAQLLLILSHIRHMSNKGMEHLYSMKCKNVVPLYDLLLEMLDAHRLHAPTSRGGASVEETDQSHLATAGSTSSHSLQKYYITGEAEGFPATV
Method: (§1) For MCF-7, luciferase activity is expressed as a fold-change relative to the no E2 control. For LCC9, luciferase activity is expressed relative to the control without the reporter present. Values plotted are means ± SEMs of four replicate wells. The data shown in each panel are representative of three independent experiments.
The cells were then treated with the indicated concentrations of the six bioactive compounds or vehicle only (DMSO) for 24-hr and assayed for luciferase activity. Luciferase activity is expressed as a percentage of the DMSO control. Values are means ± SEMs of four replicate wells. The data shown in each panel are representative of three independent experiments.
The cells were then harvested for luciferase assays. Luciferase activity was expressed as a fold-change relative to the no reporter control. Values plotted are means ± SEMs of four replicate wells. The data shown are representative of three independent experiments.
(§2) Subconfluent cells in 24-well dishes were transfected overnight with 0.25 μg of each indicated vector plus the ERE-TK-Luc reporter in serum-free DMEM containing Lipofectamine2000 (Life Technologies, Washington, DC). Total transfected DNA was kept constant by addition of control vector. The cells were washed, incubated in phenol red-free DMEM containing 5% charcoal-stripped serum (obtained from the Tissue Culture Shared Resource) (0.2 ml/well) ± E2 (10 nM) ± the indicated compound for 24-hr, and harvested for luciferase assays. For each assay condition was tested in quadrupicate. To monitor the transfection efficiency, cultures were co-transfected with plasmid pRSV-β-gal (Promega, Madison, WI) to visualize transfected cells by X-gal staining.

[3] = target: T1, estrogen receptor-alpha (ER); experiment: ER activity, ERE-TK-Luc reporter, in MCF-7 cells; type: cell-based; parameters: MCF-7 cells in 24-well dishes were transfected overnight with the ERE-TK-Luc reporter plasmid; endogenous in cells; host or cells: MCF-7; settings: for IC50: read-out: IC50 for inhibition of E2-stimulated ER activity
Method: as §1
The cells were then treated ± 17β-estradiol (E2, 10 nM) and with the indicated compound (@ 1 μM or 20 μM) or vehicle only (DMSO) for 24 hr and assayed for luciferase activity. Luciferase activity is expressed as a fold-change relative to the no E2 control. The data shown are representative of three independent experiments.
as §2

LCC9 cells = experiment: cell proliferation assay (cell counts days 1, 3, 5), LCC9; type: cell-based, human; settings: DMEM + 5% charcoal-stripped serum, up to 5 days; 4631-P/1 at 1 μM
Method: Starting on day 1, cells were refed daily with fresh medium (DMEM plus 5% CSS) containing the indicated agent. In panel F, the cells were refed with medium also containing ER-siRNA or control-siRNA (100 nM) at the indicated times. Wells were counted on days 1, 3, and 5 to determine cell numbers. Values are means ± SEMs of triplicate wells. The data shown in each panel are representative of three independent experiments.
Assays were performed using as the growth medium phenol red-free DMEM containing 5% charcoal-stripped serum. Briefly, proliferating cells were harvested using trypsin, counted, inoculated into 12-well dishes at 1 × 10^4 cells per well on day 0 and allowed to attach and recover for 24 hr. The cells were then treated with the indicated agents for up to five days, with daily refeeding with fresh medium and agents. Triplicate wells were counted by Coulter Counter on days 1, 3, and 5. For experiments using siRNAs, cells were treated with the indicated siRNA (100 nM) starting on day -2, and fresh siRNA was added on days 0, 2, and 4.

LCC9 tumor xenografts = experiment: LCC9 tumor xenograft growth in Balb/c nude mice; type: in vivo
Method: Figure 13 Compound NSC 35446 hydrochloride salt inhibits the growth of LCC9 breast cancer xenografts in athymic nude mice Experiments were performed as described in the Methods and Results sections. The effects of the compound administered intraperitoneally every other day at 5 mg/kg A., 10 mg/kg B., and 20 mg/kg C. are shown and compared with that of vehicle only (control, CT). Values of tumor volume are means ± SDs for N=5 mice per group. Athymic Balb/c nude mice were purchased from Charles River. Mice were housed 5 per cage with microisolater tops and provided food (Furina mice chow) and water ad libitum. The light cycle was regulated automatically (12 hours light/dark cycle) and temperature 23±1°C. Animals were allowed to acclimate to this environment for one week prior to usage. The Georgetown University Animal Care and Use Committee approved all animal studies in accordance with NIH guidelines. The stock solution of NSC 35446 hydrochloride was dissolved in DMSO at 200 mg/ml. The working solution was prepared using 10% Kolliphor ELP (Sigma-Aldrich), 3% PEG400 (Hampton Research, HR2-603); and 87% PBS to give a 1 mg/ml solution. Female Balb/c nude mice (18-22g) were injected with LCC9 cells (3 × 10^6 cells in a volume of 0.3 ml) in the subcutaneous tissue of the right axillary region. The mice were randomly sorted into groups with N=5 mice per group; and treatments were initiated when the tumors reached 150-200 mm^3. The tumor-bearing mice were given intraperitoneal injections of vehicle only (control), 5 mg/kg, 10 mg/kg, or 20 mg/kg of NSC 35446 hydrochloride every other day. The tumor size of each mouse was measured by caliper and calculated by the formula: length × width × width/2 and the body weight was recorded.

[4] = body weight and signs of acute toxicity in tumor-bearing Balb/c nude mice; type: in vivo; settings: 5, 10 or 20 mg/kg intraperitoneally every other day, 21-day study interval
Method: For these studies we used LCC9 cells grown as subcutaneous tumors in Balb/c nude mice. To improve water solubility, the compound tested (NSC 35446) was prepared as the hydrochloride salt, as described in the Methods section. The mice were dosed intraperitoneally with vehicle (control) or NSC 35446 hydrochloride every other day at 5, 10, or 20 mg/kg. Treatments were initiated when the tumors reached 150-200 mm^3. […] For most time points except the earliest, differences in size between the treated and control tumors were significant (P < 0.05, ANOVA, Tukey's multiple comparison test). There appeared to be some delay in tumor growth at the 5 mg/kg dose; but by day 21, the treated tumors were approaching the control tumors in size. The T/C ratios (ie., ratios of the changes in volume of treated tumors to that of control tumors) on day-21 were: 0.77 (5 mg/kg), 0.24 (10 mg/kg), and 0.15 (20 mg/kg).
Athymic Balb/c nude mice were purchased from Charles River. Mice were housed 5 per cage with microisolater tops and provided food (Furina mice chow) and water ad libitum. The light cycle was regulated automatically (12 hours light/dark cycle) and temperature 23±1°C. Animals were allowed to acclimate to this environment for one week prior to usage. […] The tumor size of each mouse was measured by caliper and calculated by the formula: length × width × width/2 and the body weight was recorded.

[5] = MCF7, MCF-7, E2 10 nM, compound 1 μM, 24 hr, read-out: inhibition of E2-stimulated ER activity at 1 μM

SMILES: CC(C)=CC1C(COC(=O)c2cc3c(cc2Cl)OCO3)C1(C)C (centres unmarked) [48693-K/1]
viability at 24 h, 1 µM [1]: 100%
viability at 24 h, 20 µM [1]: > 90%
IC50 [2]: 4000 nM
inhibition at 1 µM ([3]; MCF7, read-out: inhibition of E2-stimulated ER activity at 1 μM): ≥ 50%
IC50 ([3]; MCF-7, E2 10 nM, 24 hr): ≤ 1000 nM

IC50 [2]: 30000 nM
inhibition at 1 µM [3, 5]: ≥ 50%
IC50 ([3]; MCF-7, E2 10 nM, 24 hr): ≤ 1000 nM
SMILES: Sc1ccc2ccccc2c1CNCc1ccccc1 [81747-N/1]
viability at 24 h, 1 µM [1]: 100%
viability at 24 h, 20 µM [1]: > 90%

SMILES: c1ccc2c(c1)-c1ccccc1C2N1CC2CCC(CC2)C1 [88999-U/1]
IC50 [2]: ≤ 1000 nM
inhibition at 1 µM [3, 5]: ≥ 50%
IC50 ([3]; MCF-7, E2 10 nM, 24 hr): ≤ 1000 nM

IC50 [2]: ≤ 1000 nM
IC50 ([3]; MCF-7, E2 10 nM, 24 hr): ≤ 1000 nM
inhibition of E2-stimulated ER activity at 1 μM ([3]; MCF-7, E2 10 nM, compound 1 μM, 24 hr): ≥ 50%
SMILES: OCC(CCc1c[nH]c2ccccc12)c1c[nH]c2ccccc12 (centres unmarked) [372127-T/1]

SMILES: C[C@]12CC[C@@H]3c4ccc(O)cc4CC[C@H]3[C@@H]1CC[C@@H]2O [E2, 17β-estradiol, reference compound]
effect on LCC9 cell growth, single agent (LCC9 cells): Neither E2 nor Tam significantly altered growth of LCC9

SMILES: O=C(CC(c1ccccc1)N1CCCCC1)c1ccccc1 (centres unmarked) [NSC 35446 hydrochloride, 1,3-diphenyl-3-(piperidin-1-yl)propan-1-one]
T/C ratio (change in volume of treated tumors to control tumors) on day-21 (LCC9 tumor xenografts; 5 mg/kg intraperitoneally every other day): 0.77
T/C ratio (change in volume of treated tumors to control tumors) on day-21 (LCC9 tumor xenografts; 10 mg/kg intraperitoneally every other day): 0.24
T/C ratio (change in volume of treated tumors to control tumors) on day-21 (LCC9 tumor xenografts; 20 mg/kg intraperitoneally every other day): 0.15
effect on LCC9 tumor growth (LCC9 tumor xenografts; intraperitoneally every other day, 21-day study): efficacious at the 10 mg/kg and 20 mg/kg doses in slowing tumor growth or causing tumor stasis
body weight and signs of acute toxicity [4]: No significant changes in body weight or obvious signs of acute toxicity

SMILES: CC/C(=C(\c1ccccc1)c1ccc(OCCN(C)C)cc1)c1ccccc1 [Tam, Tamoxifen, reference compound]
effect on LCC9 cell growth, single agent (LCC9 cells): Neither E2 nor Tam significantly altered growth of LCC9
